In experiment [1] the target is T1, Tie2 (Homo sapiens, UniProt Q02763). Set-up: expressed in transfected cells; host or cells: CHO (CHO Tie2/DHFR). Conditions: Albert et al. Mol. Cancer. Ther. 2006, 5, 995; cited from earlier work.
Target sequence in this assay (Q02763 23-1124, species assumed): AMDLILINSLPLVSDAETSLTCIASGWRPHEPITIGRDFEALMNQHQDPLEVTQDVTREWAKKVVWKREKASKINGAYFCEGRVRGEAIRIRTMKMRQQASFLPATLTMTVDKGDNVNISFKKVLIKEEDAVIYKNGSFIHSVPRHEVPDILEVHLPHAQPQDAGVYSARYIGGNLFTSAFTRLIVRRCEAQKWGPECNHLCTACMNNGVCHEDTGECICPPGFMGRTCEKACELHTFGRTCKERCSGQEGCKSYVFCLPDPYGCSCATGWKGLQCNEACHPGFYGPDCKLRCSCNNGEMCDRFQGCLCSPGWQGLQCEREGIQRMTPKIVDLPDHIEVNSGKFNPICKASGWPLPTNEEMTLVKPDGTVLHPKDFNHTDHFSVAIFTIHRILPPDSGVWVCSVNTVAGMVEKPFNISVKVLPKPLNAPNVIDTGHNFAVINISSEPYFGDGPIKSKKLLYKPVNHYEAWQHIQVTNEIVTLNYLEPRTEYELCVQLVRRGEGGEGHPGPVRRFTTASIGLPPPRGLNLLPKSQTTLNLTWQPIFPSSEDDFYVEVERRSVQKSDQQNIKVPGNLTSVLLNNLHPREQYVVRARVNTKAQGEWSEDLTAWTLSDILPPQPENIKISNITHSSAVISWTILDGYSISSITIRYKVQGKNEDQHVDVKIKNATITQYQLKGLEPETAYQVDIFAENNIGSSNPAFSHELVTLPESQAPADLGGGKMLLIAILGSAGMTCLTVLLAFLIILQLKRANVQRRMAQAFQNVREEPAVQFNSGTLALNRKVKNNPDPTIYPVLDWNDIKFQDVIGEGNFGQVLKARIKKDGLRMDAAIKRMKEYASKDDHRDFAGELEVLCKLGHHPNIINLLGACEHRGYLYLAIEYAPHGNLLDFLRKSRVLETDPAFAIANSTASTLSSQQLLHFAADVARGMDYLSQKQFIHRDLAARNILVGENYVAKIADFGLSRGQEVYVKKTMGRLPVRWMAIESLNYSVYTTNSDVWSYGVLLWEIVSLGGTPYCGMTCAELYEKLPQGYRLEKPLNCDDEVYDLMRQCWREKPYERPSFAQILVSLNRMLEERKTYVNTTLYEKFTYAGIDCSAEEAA
In experiment [2] the target is T1, Tie2. Set-up: expressed in transfected cells; host or cells: CHO (CHO Tie2/DHFR). Conditions: more potent against other kinases than against Tie2; cited from earlier work.
Target sequence in this assay (Q02763 23-1124, species assumed): as above
For experiment [3], the target named is T1, Tie2. Nature of the experiment: Tie2 ELISA assay (cellular Tie2 autophosphorylation). The format is cell-based. Further details: expressed in transfected cells; host or cells: CHO (CHO Tie2/DHFR). The following applies: CHO cells stably transfected with Tie2, stimulated by angiopoietin-2; Tie2 autophosphorylation by sandwich-ELISA; read-out: Tie 2 activity (assay 1). On the procedure: Cellular activity of compounds of the present invention as inhibitors of Tie2 kinase activity was measured employing a Tie2 ELISA assay as described in the following paragraphs. Herein CHO cell-cultures, which are stably transfected by known techniques with Tie2 using DHFR deficiency as selection marker, are stimulated by angiopoietin-2. The specific autophosphorylation of Tie2 receptors is quantified with a sandwich-ELISA using anti-Tie2 antibodies for catch and anti-phosphotyrosine antibodies coupled to HRP for detection.
• 96 well tissue culture plate, sterile, Greiner • 96 well FluoroNunc plate MaxiSorp Surface C, Nunc • 96 well plate polypropylene for compound dilution in DMSO • CHO Tie2/DHFR (transfected cells) • PBS−; PBS++, DMSO • MEM alpha Medium with Glutamax-I without Ribonucleosides and Deoxyribonucleosides (Gibco #32561-029) • with 10% FCS after dialysis! and 1% PenStrep • Lysis buffer: 1 Tablet “Complete” protease inhibitor • 1 cap Vanadate (1 mL>40 mg/mL; working solution 2 mM) • ad 50 mL with Duschl-Puffer • pH 7.6 • Anti-Tie2-antibody 1:425 in Coating Buffer pH 9.6 • Stock solution: 1.275 mg/mL>working.: 3 μg/mL • PBST: 2 bottles PBS (10×)+10 ml Tween, fill up with VE-water • RotiBlock 1:10 in VE-water • Anti-Phosphotyrosine HRP-Conjugated 1:10000 in 3% TopBlock • 3% TopBlock in PBST • BM Chemiluminescence ELISA Substrate (POD) • solution B 1:100 solution A • SF9 cell culture medium • Ang2-Fc in SF9 cell culture medium
• Dispense 5×10^4 cells/well/98 μL in 96 well tissue culture plate • Incubate at 37° C./5% CO2 • After 24 h add compounds according to desired concentrations • Add also to control and stimulated values without compounds 2 μL DMSO • And mix for a few min at room temperature • Add 100 μL Ang2-Fc to all wells except control, which receives insect medium • Incubate 20 min at 37° C. • Wash 3× with PBS++ • Add 100 μl Lysis buffer/well and shake a couple of min at room temperature • Store lysates at […] before utilizing for the ELISA
• Coat 96 well FluoroNunc Plate MaxiSorp Surface C with anti-Tie2 mAb 1:425 in Coating buffer pH 9.6; 100 μL/well overnight at 4° C. • Wash 2× with PBST • Block plates with 250 μL/well RotiBlock 1:10 in VE-water • Incubate for 2 h at room temperature or overnight at 4° C. shaking • Wash 2× in PBST • Add thawed lysates to wells and incubate overnight shaking at 4° C. • Wash 2× with PBST • Add 100 μL/well anti-Phosphotyrosine HRP-Conjugated 1:10000 in 3% TopBlock (3% TopBlock in PBST) and incubate overnight under shaking • Wash 6× with PBST • Add 100 μL/well BM Chemiluminescence ELISA Substrate (POD) solutions 1 und 2 (1:100) • Determine luminescence with the LumiCount. Assay 2: Tie-2-Kinase HTRF-Assay without Kinase Preactivation
(In general: An ELISA detects its analyte on a solid surface through an enzyme-linked reagent.)
Target sequence in this assay (Q02763 23-1124, species assumed): as above

The target of experiment [4] is T1, Tie2. Kind of experiment: Tie-2-Kinase HTRF-Assay without kinase preactivation. The class given is biochemical. Set-up: fusion protein of GST and the intracellular domains of Tie-2; GST; made in house; host or cells: insect cells (Hi-5). Conditions: GST-Tie-2 intracellular domains, 10 μM ATP. From the text: Tie2-inhibitory activity of compounds of the present invention was quantified employing two Tie2 HTRF assay as described in the following paragraphs.
A recombinant fusion protein of GST and the intracellular domains of Tie-2, expressed in insect cells (Hi-5) and purified by Glutathion-Sepharose affinity chromatography was used as kinase. Alternatively, commercially available GST-Tie2-fusion protein (Upstate Biotechnology, Dundee, Scotland) can be used As substrate for the kinase reaction the biotinylated peptide biotin-Ahx-EPKDDAYPLYSDFG (C-terminus in amid form) was used which can be purchased e.g. from the company Biosynthan GmbH (Berlin-Buch, Germany). Detection of phosphorylated product is achieved specifically by a trimeric detection complex consisting of the phosphorylated substrate, streptavidin-XLent (SA-XLent) which binds to biotin, and Europium Cryptate-labeled anti-phosphotyrosine antibody PT66 which binds to phosphorylated tyrosine.
Tie-2 (3.5 ng/measurement point) was incubated for 60 min at 22° C. in the presence of 10 μM adenosine-tri-phosphate (ATP) and 1 μM substrate peptide (biotin-Ahx-EPKDDAYPLYSDFG-NH2) with different concentrations of test compounds (0 μM and concentrations in the range 0.001-20 μM) in 5 μl assay buffer [50 mM Hepes/NaOH pH 7, 10 mM MgCl2, 0.5 mM MnCl2, 1.0 mM dithiothreitol, 0.01% NP40, protease inhibitor mixture (“Complete w/o EDTA” from Roche, 1 tablet per 2.5 ml), 1% (v/v) dimethylsulfoxide]. The reaction was stopped by the addition of 5 μl of an aqueous buffer (25 mM Hepes/NaOH pH 7.5, 0.28% (w/v) bovine serum albumin) containing EDTA (90 mM) and the HTRF (Homogeneous Time Resolved Fluorescence) detection reagents streptavidine-XLent (0.2 μM, from Cis Biointernational, Marcoule, France) and PT66-Eu-Chelate (0.3 ng/μl; a europium-chelate labelled anti-phospho-tyrosine antibody from Perkin Elmer).
The resulting mixture was incubated 1 h at 22° C. to allow the binding of the biotinylated phosphorylated peptide to the streptavidine-XLent and the PT66-Eu-Chelate. Subsequently the amount of phosphorylated substrate peptide was evaluated by measurement of the resonance energy transfer from the PT66-Eu-Chelate to the streptavidine-XLent. Therefore, the fluorescence emissions at 620 nm and 665 nm after excitation at 350 nm was measured in a HTRF reader, e.g. a Rubystar (BMG Labtechnologies, Offenburg, Germany) or a Viewlux (Perkin-Elmer). The ratio of the emissions at 665 nm and at […] was taken as the measure for the amount of phosphorylated substrate peptide. The data were normalised (enzyme reaction without inhibitor=0% inhibition, all other assay components but no enzyme=100% inhibition) and IC50 values were calculated by a 4 parameter fit using an inhouse software.
Target sequence in this assay (Q02763 770-1124 limits assumed, species assumed): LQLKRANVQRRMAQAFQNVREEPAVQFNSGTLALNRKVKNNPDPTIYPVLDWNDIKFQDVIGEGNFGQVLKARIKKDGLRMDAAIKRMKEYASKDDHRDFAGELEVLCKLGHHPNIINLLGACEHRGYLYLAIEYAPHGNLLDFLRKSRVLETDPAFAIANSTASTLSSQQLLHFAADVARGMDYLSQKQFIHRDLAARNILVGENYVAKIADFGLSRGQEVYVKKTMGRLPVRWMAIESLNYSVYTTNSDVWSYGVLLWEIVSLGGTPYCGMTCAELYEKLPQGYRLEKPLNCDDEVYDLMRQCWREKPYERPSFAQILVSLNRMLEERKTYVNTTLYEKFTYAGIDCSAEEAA
A general note: Time-resolved FRET reads energy transfer from a long-lived donor to a nearby acceptor.

Molecules are shown by their SMILES.

The values that follow come from patent US20090062273A1, “3-H-pyrazolopyridines and salts thereof, pharmaceutical compositions comprising same, methods of preparing same and uses of same” (priority 2006, published 2009).

Turning to `Cc1ccc(F)c(NC(=O)Nc2ccc(-c3cccc4[nH]nc(N)c34)cc2)c1` [Abt-869], the “activity as inhibitor of cellular Tie2 autophosphorylation” value at Tie2 [1] is listed as “only modest activity”. The “potency against at least 5 other kinase targets relative to Tie2” value at Tie2 [2] is listed as more than 10 times.

For the molecule `Cn1ncc2c(-c3ccc(NC(=O)Nc4ccc(CN5CCN(CC6CC6)CC5)c(C(F)(F)F)c4)cc3)cncc21` [Example 13.26, 1-[4-(4-Cyclopropylmethyl-piperazin-1-ylmethyl)-3-trifluoromethyl-phenyl]-3-[4-(1-methyl-1H-pyrazolo[3,4-c]pyridin-4-yl)-phenyl]-urea], the IC50 at Tie2 [3] and against Tie2 [4] was less than 501 nM each time.
